In patent US8633208B2, “6-1H-imidazo-quinazoline and quinolines derivatives, new MAO inhibitors and imidazoline receptor ligands” (Rottapharm S.p.A, priority 2008, dated 2014):
Where a name gives a salt, the structure may show the parent alone.

First: COc1ccc(-c2ncc3cc(-n4cnc(C)c4)ccc3n2)cc1 (as salt: hydrochloride) [Example 6, [6-(4-methyl-1H-imidazol-1-yl)-2-(4-methoxyphenyl)]quinazoline]
Second: COc1cccc(-c2ncc3cc(-n4cnc(C)c4)ccc3n2)c1 [Example 8, [6-(4-methyl-1H-imidazol-1-yl)-2-(3-methoxyphenyl)]quinazoline]
The melting point of the first is lower: 201 to 202 °C for the first, 294 to 296 °C for the second.

Compared with `Cc1cn(-c2ccc3nc(-c4ccoc4)ncc3c2)cn1` [Example 12, [6-(4-methyl-1H-imidazol-1-yl)-2-(3-furyl)]quinazoline], `Cc1cn(-c2ccc3nc(-c4ccc(S(C)(=O)=O)cc4)ncc3c2)cn1` (as salt: hydrochloride) [Example 11, [6-(4-methyl-1H-imidazol-1-yl)-2-(4-methanesulfonylphenyl)]quinazoline] is higher in melting point: 160.5 to 163.2 °C for the first, 276.4 to 281.7 °C for the second.

Compared with `CN(C)c1ccc(-c2ccc3cc(-n4ccnc4)ccc3n2)cc1` (as salt: hydrochloride) [Example 22, [6-(1H-imidazol-1-yl)-2-(4-dimethylaminophenyl)]quinoline trihydrochloride], `Fc1ccc(-c2ccc3cc(-n4ccnc4)ccc3n2)cc1` (as salt: hydrochloride) [Example 21, [6-(1H-imidazol-1-yl)-2-(4-fluorophenyl)]quinoline dihydrochloride] is lower in melting point: 284 to 286 °C for the first, 280.7 to 282 °C for the second.

First: COc1ccc(-c2ccc3cc(-n4ccnc4)ccc3n2)cc1 (as salt: hydrochloride) [Example 18, [6-(1H-imidazol-1-yl)-2-(4-methoxyphenyl)]quinoline dihydrochloride]
Second: FC(F)(F)Oc1ccc(-c2ccc3cc(-n4ccnc4)ccc3n2)cc1 (as salt: hydrochloride) [Example 23, [6-(1H-imidazol-1-yl)-2-(4-trifluoromethoxyphenyl)]quinoline dihydrochloride]
The melting point of the first is higher: 266 to 267 °C for the first, 260 to 262 °C for the second.

First: c1cn(-c2ccc3nc(-c4ccoc4)ccc3c2)cn1 (as salt: hydrochloride) [Example 20, [6-(1H-imidazol-1-yl)-2-(3-furyl)]quinoline dihydrochloride]
Second: Cc1nccn1-c1ccc2nc(-c3ccoc3)ccc2c1 (as salt: hydrochloride) [Example 28, [6-(2-methyl-1H imidazol-1-yl)-2-(3-furyl)]quinoline dihydrochloride]
The melting point of the first is higher: 293.1 to 295.6 °C for the first, 240.1 to 243.2 °C for the second.

Compared with `CSc1ccc(-c2ccc3cc(-n4cnc(C)c4)ccc3n2)cc1` (as salt: hydrochloride) [Example 33, [6-(4-methyl-1H-imidazol-1-yl)-2-(4-methylthiophenyl)]quinoline dihydrochloride], `Cc1cn(-c2ccc3nc(-c4ccc(F)cc4)ccc3c2)cn1` (as salt: hydrochloride) [Example 32, [6-(4-methyl-1H-imidazol-1-yl)-2-(4-fluorophenyl)]quinoline dihydrochloride] is lower in melting point: 294 to 296 °C for the first, 264 to 268 °C for the second.

First: Cc1cncn1-c1ccc2nc(-c3ccccc3)ncc2c1 (as salt: hydrochloride) [Example 5, [6-(5-methyl-1H-imidazol-1-yl)-2-phenyl]quinazoline]
Second: COc1ccc(-c2ncc3cc(-n4ccnc4C)ccc3n2)cc1 (as salt: hydrochloride) [Example 3, [6-(2-methyl-1H-imidazol-1-yl)-2-(4-methoxyphenyl)]quinazoline]
The melting point of the first is lower: 138.5 to 139.1 °C for the first, 198.3 to 200.3 °C for the second.

For `COc1ccc(-c2ccc3cc(-n4ccnc4C)ccc3n2)cc1` (as salt: hydrochloride) [Example 26, [6-(2-methyl-1H-imidazol-1-yl)-2-(4-methoxyphenyl)]quinoline dihydrochloride], the melting point was 230 °C (dec.).
In the case of `COc1ccccc1-c1ccc2cc(-n3ccnc3C)ccc2n1` (as salt: hydrochloride) [Example 27, [6-(2-methyl-1H-imidazol-1-yl)-2-(2-methoxyphenyl)]quinoline dihydrochloride], the melting point was 235 °C (dec.).
